Among the data in US6004938A, “Inositolglycans having insulin-like action” (Hoescht Aktiengesellschaft, priority 1996, dated 1999) are EC50 and Emax values, retold here.

One may read the EC50 as the midpoint of the concentration-response curve.

Experiment [1] concerns rat fat cells. Briefly: Lipogenesis in isolated rat fat cells (insulin-like activity). It is filed as cell-based, rat (Wistar). To be noted: 1.5 h; for EC50: read-out: Lipogenesis EC50; for Emax: read-out: Lipogenesis % Insmax. As to the method: (§1) This example provides exemplary methods for determining insulin-like activity. The biological activity of the compounds of the formula I according to the invention is determined with the aid of isolated fat cells from the rat.
(§2) The preparation of fat cells from the rat was carried out as follows: White fatty tissue of the epididymis (Wistar rat, 160-180 g, no food restriction) is digested with collagenase and the resulting isolated fat cells are separated off by means of filtration of undigested tissue and washed by flotation several times using Krebs-Ringer-Henseleit buffer (KRH buffer).
This test determines the insulin-stimulable conversion of glucose into toluene-soluble products (triglycerides, phospholipids, fatty acids), which promotes glucose transport and triglyceride (glycerol-3-P synthesis, esterification)/phospholipid/fatty acid synthesis including the insulin signal transmission cascade. At a glucose concentration of 2.5 mM in the test, the esterification (and not the glycerol-3-P synthesis including glucose transport) is rate-determining for the stimulation of lipogenesis.
200 μl (3×10^5 cells/ml) of rat fat cells in KRH buffer are incubated at 37° C. for 90 min with 100 μl of D-[3-^3 H] glucose (25 mM, 0.4 μCi) in the presence or absence of insulin (10 ng/ml) or compound of the formula I according to the invention (final volume 1 ml). By addition of a toluene-soluble scintillation cocktail (10 ml), the cells are disrupted and the lipids are separated off from water-soluble products and the incubation medium. After phase separation, the radioactivity incorporated in lipid products is determined directly without removal of the aqueous phase by scintillation measurement ([^3 H]lipid [dpm×10^-3 ]). A control value (incubation under identical conditions but without cells) is subtracted from this radioactivity. The lipogenesis rate is linear up to 120 min. The maximum stimulation factor--this is the ratio of the incubation result with insulin to the incubation results without insulin--is set at 100%. The percentage data under "%Insmax " are parts of the maximum stimulation factor defined in this way. The term EC50 indicates the concentration of the compound of the formula I at which 50% of the maximum stimulation to be achieved by the respective compound of the formula I is to be observed.

For experiment [2], the system named is rat fat cells. Briefly: Glucose transport in isolated rat fat cells (insulin-like activity). It is filed as cell-based, rat (Wistar). To be noted: for Emax: 0.25 h, read-out: Glucose transport % Insmax; for EC50: read-out: Glucose transport EC50. How it is done:
as §1, §2
[…] After addition of 15 μl of 2-[^3 H]-deoxyglucose (0.3 mM, 0.2 μCi), the incubation is continued at room temperature. After specified times (0-20 min), 100 μl of the test batch are removed and transferred to a reaction vessel (contents 400 μl), in which 250 μl of dinonyl phthalate have been initially introduced. After centrifugation (15,000×g, 1 min), the cells are separated off from the oily layer of the incubation medium underneath the oily layer by cutting the tube at the level of the oily layer and transferring to a scintillation vessel. After addition of 5 ml of water-soluble scintillation fluid, the radioactivity is determined. This total cell-associated radioactivity is corrected for [^3 H]-deoxyglucose which has passively diffused into the cells and is included in the cell interstices by subtraction of a control value (incubation in the presence of the glucose transport inhibitor cytochalasin B). The initial (stimulated) glucose transport rate is linear up to 15 min. The maximum stimulation factor--this is the ratio of the incubation result with insulin to the incubation result without insulin--is set at 100%.
The terms "%Insmax " and "EC50 " are as defined under A) lipogenesis.

Where [3] appears, read: concentration at 50% of the maximum stimulation achieved by the respective compound, rat fat cells, 90 min, 37° C.
Where [4] appears, read: part of maximum stimulation factor of insulin (set at 100%), rat fat cells, 90 min, 37° C., D-[3-3H]glucose.
Setting [5] is: part of maximum stimulation factor of insulin (set at 100%), rat fat cells, 15 min, 37° C., 2-[3H]-deoxyglucose.
The mark [6] stands for this setting: concentration at 50% of the maximum stimulation achieved by the respective compound, rat fat cells, 2-[3H]-deoxyglucose.

`N[C@H]1[C@H](O[C@H]2[C@H](O)[C@@H](O)[C@H](O)[C@@H]3OP(=O)(O)O[C@H]23)O[C@H](CO)[C@@H](O[C@H]2O[C@H](CO[C@H]3O[C@H](CO)[C@@H](O)[C@H](O)[C@@H]3O[C@H]3O[C@H](CO[PH](=O)O)[C@@H](O)[C@H](O)[C@@H]3O[C@H]3O[C@H](CO)[C@@H](O)[C@H](O)[C@@H]3O)[C@@H](O)[C@H](O)[C@@H]2O)[C@@H]1O` [A, HO-PO(H)O-6Manα1(Manα1-2)-2Manα1-6Manα1-4GluNβ1-6(L)inositol-1,2-(cyclic)-phosphate]: the EC50 in the experiment on rat fat cells [1] (setting [3]) came to 7 µM; with rat fat cells [2] (setting [6]) it was 8 µM. Also, the Emax with rat fat cells [1] (setting [4]) was found to be 59%; in the experiment with rat fat cells [2] (setting [5]) it was 28%.
On the same counts, the results for `N[C@H]1[C@H](O[C@@H]2[C@@H](O)[C@H](O)[C@@H](O)[C@H]3OP(=O)(O)O[C@H]32)O[C@H](CO)[C@@H](O[C@H]2O[C@H](CO[C@H]3O[C@H](CO)[C@@H](O)[C@H](O)[C@@H]3O[C@H]3O[C@H](CO[PH](=O)O)[C@@H](O)[C@H](O)[C@@H]3O[C@H]3O[C@H](CO)[C@@H](O)[C@H](O)[C@@H]3O)[C@@H](O)[C@H](O)[C@@H]2O)[C@@H]1O` [B, HO-PO(H)O-6Manα1(Manα1-2)-2Manα1-6Manα1-4GluNβ1-6(D)inositol-1,2-(cyclic)-phosphate] are 8.2 µM, 8.1 µM, 77% and 41%.
Consider `N[C@H]1[C@H](O[C@@H]2[C@@H](O)[C@H](O)[C@@H](O)[C@H]3OP(O)(=S)O[C@H]32)O[C@H](CO)[C@@H](O[C@H]2O[C@H](CO[C@H]3O[C@H](CO)[C@@H](O)[C@H](O)[C@@H]3O[C@H]3O[C@H](CO[PH](=O)O)[C@@H](O)[C@H](O)[C@@H]3O[C@H]3O[C@H](CO)[C@@H](O)[C@H](O)[C@@H]3O)[C@@H](O)[C@H](O)[C@@H]2O)[C@@H]1O` (some centres unmarked) [C, HO-PO(H)O-6Manα1(Manα1-2)-2Manα1-6Manα1-4GluNβ1-6(D)inositol-1,2-(cyclic)-thiophosphate], for which the Emax was 64% with rat fat cells [1] (Rattus norvegicus) and 29% with rat fat cells [2] (Rattus norvegicus). Further, the figures for the EC50 in the experiment on rat fat cells [1] (Rattus norvegicus) and in the experiment on rat fat cells [2] (Rattus norvegicus) were 7 µM and 10 µM, respectively.
Regarding `N[C@H]1[C@H](O[C@H]2[C@H](O)[C@@H](O)[C@H](OP(=O)(O)O)[C@H](O)[C@@H]2O)O[C@H](CO)[C@@H](O)[C@@H]1O[C@H]1O[C@H](CO[C@H]2O[C@H](CO)[C@@H](O)[C@H](O)[C@@H]2O[C@H]2O[C@H](CO[PH](=O)O)[C@@H](O)[C@H](O)[C@@H]2O[C@H]2O[C@H](CO)[C@@H](O)[C@H](O)[C@@H]2O)[C@@H](O)[C@H](O)[C@@H]1O` [D, HO-PO(H)O-6Manα1(Manα1-2)-2Manα1-6Manα1-3GluNβ1-6(L)inositol-3-phosphate], the half-maximal effective concentration (EC50) stood at 20 µM with rat fat cells [1] (setting [3]) and 18 µM in the experiment with rat fat cells [2] (setting [6]). The Emax with rat fat cells [1] (setting [4]) is 33%; with rat fat cells [2] (setting [5]), 18%.
On the same counts, the results for `NCCOP(=O)(O)OC[C@H]1O[C@H](OC[C@H]2O[C@H](O[C@H]3[C@H](O)[C@@H](N)[C@H](O[C@@H]4[C@@H](O)[C@H](O)[C@@H](O)[C@H]5OP(=O)(O)O[C@H]54)O[C@@H]3CO)[C@@H](OP(=O)(O)OCCN)[C@@H](O)[C@@H]2O)[C@@H](O[C@H]2O[C@H](CO[PH](=O)O)[C@@H](O)[C@H](O)[C@@H]2O[C@H]2O[C@H](CO)[C@@H](O)[C@H](O)[C@@H]2O)[C@@H](O)[C@@H]1O` [E, HO-PO(H)O-6Manα1(Manα1-2)-2Manα1(6-EtNP)-6Manα1(2-EtNP)-4GluNβ1-6(D)inositol-1,2-(cyclic)-phosphate] are 60 µM, 30 µM, 48% and 34%.
Turning to `N[C@H]1[C@@H](O[C@H]2[C@H](O)[C@@H](O)[C@H](O)[C@@H]3OP(=O)(O)O[C@H]23)O[C@H](CO)[C@@H](O[C@H]2O[C@H](CO[PH](=O)O)[C@@H](O)[C@H](O)[C@@H]2O)[C@@H]1O` [G, HO-PO(H)O-6Manα1-4GluNα1-6(L)inositol-1,2-(cyclic)-phosphate], the EC50 in the experiment with rat fat cells [1] (setting [3]) and with rat fat cells [2] (setting [6]) was 15 µM throughout. For the same molecule, the Emax was determined as 25% in the experiment on rat fat cells [1] (setting [4]) and 9% with rat fat cells [2] (setting [5]).
In the case of `N[C@H]1[C@@H](O[C@H]2[C@H](O)[C@@H](O)[C@H](O)[C@H](O)[C@@H]2O)O[C@H](CO)[C@@H](O[C@H]2O[C@H](CO[PH](=O)O)[C@@H](O)[C@H](O)[C@@H]2O)[C@@H]1O` [H, HO-PO(H)O-6Manα1-4GluNα1-6(L)inositol], the EC50 came out at 25 µM with rat fat cells [1] (setting [3]) and 10 µM in the experiment on rat fat cells [2] (setting [6]). Further, the Emax with rat fat cells [1] (setting [4]) was determined as 15%; in the experiment on rat fat cells [2] (setting [5]) it was 2%.
Regarding `N[C@H]1[C@H](O[C@@H]2[C@@H](O)[C@H](O)[C@@H](O)[C@H]3OP(=O)(O)O[C@H]32)O[C@H](CO)[C@@H](O[C@H]2O[C@H](CO[C@H]3O[C@H](CO[PH](=O)O)[C@@H](O)[C@H](O)[C@@H]3O[C@H]3O[C@H](CO[PH](=O)O)[C@@H](O)[C@H](O)[C@@H]3O[C@H]3O[C@H](CO)[C@@H](O)[C@H](O)[C@@H]3O)[C@@H](O)[C@H](O)[C@@H]2O)[C@@H]1O` [M, HO-PO(H)O-6Manα1(Manα1-2)-2Manα1(6-PO(H)OH)-6Manα1-4GluNβ1-6(D)-inositol-1,2-(cyclic)-phosphate], the results for the 50% effective concentration (EC50) with rat fat cells [1] (setting [3]) and in the experiment on rat fat cells [2] (setting [6]) were 7 µM and 6 µM, respectively. Also, the Emax in the experiment on rat fat cells [1] (setting [4]) is 90%; in the experiment with rat fat cells [2] (setting [5]) it was 39%.
On the same counts, the results for `N[C@H]1[C@H](O[C@@H]2[C@@H](O)[C@H](O)[C@@H](O)[C@H]3OP(=O)(O)O[C@H]32)O[C@H](CO)[C@@H](O[C@H]2O[C@H](CO[C@H]3O[C@H](COS(=O)(=O)O)[C@@H](O)[C@H](O)[C@@H]3O[C@H]3O[C@H](COS(=O)(=O)O)[C@@H](O)[C@H](O)[C@@H]3O[C@H]3O[C@H](CO)[C@@H](O)[C@H](O)[C@@H]3O)[C@@H](O)[C@H](O)[C@@H]2O)[C@@H]1O` [N, HO-SO2 -O-6Manα1(Manα1-2)-2Manα1(6-HSO3)-6Manα1-4-GluNβ1-6(D)-inositol-1,2-(cyclic)-phosphate] are 3 µM, 5 µM, 96% and 52%.
On the same counts, the results for `O=[PH](O)OC[C@H]1O[C@H](OC[C@H]2O[C@H](OC[C@H]3O[C@H](OC[C@H]4O[C@H](OC[C@H]5O[C@H](O[C@H]6[C@H](O)[C@@H](O)[C@H](OP(=O)(O)O)[C@H](O)[C@@H]6O)[C@@H](O)[C@@H](O)[C@@H]5O)[C@@H](O)[C@@H](O)[C@@H]4O)[C@@H](O)[C@@H](O)[C@@H]3O)[C@@H](O)[C@@H](O)[C@@H]2O)[C@@H](O)[C@@H](O)[C@@H]1O` [O, HO-PO(H)O-6-Manα1-6Manα1-6Manα-1-6Manα1-6Manα1-6(L)inositol-3-phosphate] are 20 µM, 50 µM, 10% and 5%.
Take `N[C@H]1[C@H](O[C@H]2[C@H](O)[C@@H](O)[C@H](OP(=O)(O)O)[C@H](O)[C@@H]2O)O[C@H](CO)[C@@H](O)[C@@H]1O[C@H]1O[C@H](CO[C@H]2O[C@H](CO[PH](=O)O)[C@@H](O)[C@H](O)[C@@H]2O[C@H]2O[C@H](CO[PH](=O)O)[C@@H](O)[C@H](O)[C@@H]2O)[C@@H](O)[C@H](O)[C@@H]1O` [Q, HO-PO(H)O-6Manα1-2Manα1(6-PO(H)OH)-6-Manα1-3GluNβ1-6(L)inositol-3-phosphate]: the EC50 in the experiment with rat fat cells [1] (setting [3]) worked out at 40 µM; in the experiment on rat fat cells [2] (setting [6]), 30 µM. The Emax in the experiment on rat fat cells [1] (setting [4]) was 44%; in the experiment on rat fat cells [2] (setting [5]), 18%.
